# Assay results taken from a melting point compilation (Tetko et al.; mined from patent text by program, amines drawn as free bases though some values may be those of a salt).
row,SMILES,melting point
1,CC(C)c1nnn(-c2c(Cl)cccc2Cl)c1COc1ccc(N(C)C(=O)c2ccc(C(=O)O)cc2)c(C(F)(F)F)n1,218 to 219 °C
2,CC(C)Nc1cccnc1N1CCN(C(=O)c2ccc(C(=O)N[C@H](C)CO)cn2)CC1,129 to 130 °C
3,COc1ccc(-c2nc(C)c(C(=O)Nc3nnn[nH]3)s2)cc1,275 to 278 °C
4,CCCC(=O)N(Cc1ccc(OC(F)(F)F)cc1)c1cc(Cl)cc(-c2nnn[nH]2)c1,179 °C
5,CCCc1nc(C)c2c(=O)[nH]c(N)nn12,266 °C
6,Cc1nc(NC(=O)c2cnccn2)c(Br)c(C)c1Br,166 °C
7,CCN(SN(C)C=Nc1ccc(Cl)cc1C)c1ccccc1,51.5 to 53 °C
8,O=C(O)c1c(-c2ccc(Cl)cc2)ccnc1Br,204 to 208 °C
9,CN(C)CCCC(=O)N1CCC(c2[nH]nc3c2C(=O)c2c(NC(=O)NN4CCOCC4)cccc2-3)CC1,145 to 147 °C
10,COC(=O)ONC(=N)Nc1ccc(C(=O)OC(C)(C)C)cc1,122 to 126 °C
11,C#CCN1CCC(C(C)(C)CO)CC1,78 to 82 °C
12,CC1(C)CC(SCc2c(C(F)(F)F)nn(C(F)F)c2Cl)=NO1,41 to 42 °C
13,CC1(C)CCc2ccc(Oc3ccc(N)cn3)cc2O1,93 to 94 °C
14,Oc1cc(-c2cc3n(n2)CCCC3)c(F)cc1Cl,218 to 220 °C
15,c1cc2cc3ccc(OCCN4CCCCC4)cc3nc2cc1OCCN1CCCCC1,129 to 130 °C
16,O=C(N[C@H]1CC[C@H](CCN2CCN(c3nccc4c3CCO4)CC2)CC1)c1ccnc2ccccc12,210 °C
17,Cc1nc2ccc3c(c2o1)OC(CN1CCC(O)(c2cccc(C(F)(F)F)c2)CC1)CO3 (configuration not stated),148 to 151 °C
18,OCCn1cc(C(CC2CCCCCC2)=NO)c2c(Cl)cccc21,120 to 123 °C
19,N#Cc1cccc(Oc2ncccc2C(=O)NCc2ccc(S(N)(=O)=O)cc2)c1,179 to 180 °C
20,CN(C)C(=O)c1nc(-c2ccncc2)nc2c1c1ccc(Cl)cc1n2C,268 to 269 °C
21,COc1cc(CC(=O)NCCCc2ccc(C)c(C)c2)ccc1OCCNCCO,76 to 79 °C
22,Cc1ccc(-c2ccc3c(c2)C=C(C(=O)N[C@H]2CC[C@H](CN(C)C4CCOCC4)CC2)CCO3)cc1,144 to 146 °C

row,SMILES,melting point
1,O=C(O)c1cn(-c2cccc(Br)c2)cn1,205 to 207 °C
2,CCC(=O)Nc1cc(-c2cccnc2)nc(-c2ccco2)n1,252 to 253 °C
3,CC(C)CCN1C(=O)C(NC(=O)n2ccnc2)C(=O)N(c2ccccc2)c2ccccc21 (configuration not stated),62 to 65 °C
4,O=c1cc(N2CCOCC2)[nH]c2c(-c3ccc([N+](=O)[O-])c4c3oc3ccccc34)cccc12,247 °C
5,COc1nccnc1NS(=O)(=O)c1cccc(F)c1,142 to 143 °C
6,CCc1nc2cnc3cc(Br)ccc3c2n1CC1CCN(C(=O)OC(C)(C)C)CC1,208 to 209 °C
7,Cc1c(Cl)ccc(S(=O)(=O)Cl)c1C#N,69 to 72 °C
8,CCCCCCCNC(=O)Nc1ccccc1N(C)C(=O)c1cc(C(C)(C)C)c(O)c(C(C)(C)C)c1,193 to 196 °C
9,CNC(=O)ON=C(C(=O)N(C)C)C(C)=NOC,172 to 173 °C
10,CN1CCN(c2cccc3c2C[C@H](NC(=O)c2ccc(F)cc2)CC3)CC1,189 to 190 °C
11,CCOC(=O)c1ccc(NC(=O)CCc2ccc(Cl)cc2)cc1,163 to 165 °C
12,CCOC(=O)C(Cc1cc(Cl)c(Sc2ccc(OC)c(Cc3ccc(OC)nc3)c2)c(Cl)c1)(NC(C)=O)C(=O)OCC,170 to 171 °C
13,CN1C(=O)C2(COc3cc4c(cc32)OCCO4)c2c(NC(=O)NC3CCCCC3)cccc21 (configuration not stated),175 to 177 °C
14,COc1cccc2c1CCC[C@H]2NC(=O)c1cccc(Cl)c1O,175 to 176 °C
15,CCOC(=O)c1cc2n(C)c3ccccc3c(=O)n2n1,239 to 241 °C
16,Cc1ccc(C(O)(c2ccccc2)c2ccncc2)cc1 (configuration not stated),192 to 195 °C
17,CC(=O)OC[C@@H]1C=C[C@H](n2cnc3c(Cl)nc(N)nc32)C1,124 to 127 °C
18,C=CS(=O)(=O)CCN1CCC(N2N=C(c3ccc(OC)c(OC)c3)[C@H]3CC=CC[C@H]3C2=O)CC1,165 to 166 °C
19,Cc1c(Br)c2c(c3c1C(c1ccc(C(C)C)cc1)CO3)CCC2 (configuration not stated),127 to 128 °C
20,Cc1ccc(S(=O)(=O)OC2=C(Br)C(=O)c3c(ccc4c3CCC(C)(C)O4)C2=O)cc1,109 to 115 °C
21,CCCCCCCCc1ccc(CCC(C)(CCOC(C)=O)NC(C)=O)cc1 (configuration not stated),137 to 141 °C
22,Nc1ncc(Oc2ccc(Cl)cc2)c(N[C@H]2CC[C@H](O)CC2)n1,154 to 155 °C

row,SMILES,melting point
1,COC(=O)c1oc2c(OC)cccc2c1O,114 °C
2,O=C(CCC(=O)N1CCC(c2ccc(Cl)cc2)CC1)c1ccc2c(c1)CCN(CC1CCCCC1)CC2,140 to 141 °C
3,O=C(CCBr)NCC(=O)c1ccccc1,114 °C
4,CCCn1cnc2c1c(=O)n(CCCCCCO)c(=O)n2C,68 to 70 °C
5,COC(=O)c1ccc(Cl)c(N)c1Cl,50 to 52 °C
6,O=c1cc(Cl)c2cc(OC(F)(F)F)ccc2o1,85 to 87 °C
7,Cc1ccc(CN2CCC3(CC2)CSC2=C(O3)c3ccccc3C(=O)C2=O)cc1,156 to 158 °C
8,CCc1nc2c(C)c(Br)c(C)nc2n1Cc1ccc2oc(-c3cccc(F)c3C(=O)O)c(Br)c2c1,223 to 225 °C
9,O=C1c2ccccc2-c2ccncc21,152 to 153 °C
10,COc1cc2c(cc1Nc1ncc(Cl)c(Nc3c(OC)ccc4c3CN(S(C)(=O)=O)CC(=O)N4)n1)CCN(CC(=O)N(C)C)CC2,118 to 121 °C
11,Cc1cc(-c2cc(C(F)(F)F)n3nc(CC#N)c(C#N)c3n2)ccc1Cl,238 °C
12,Clc1ccc2c(c1)N(c1ncnc3cnccc13)CC2,194 to 196 °C
13,COC(=O)CCCNC(=O)CCCN(C(=O)c1cc(OC)c(OC)c(OC)c1)c1c(C)cccc1C,97 to 99 °C
14,NC(=O)c1cn(Cc2ccccc2Cl)nn1,155 to 158 °C
15,Cc1[nH]cnc1CCCCNC(=N)N,152 to 154 °C
16,COc1cc(C)cc(-c2n[nH]cc2-c2ccnc(SC)n2)c1,143 °C
17,CCc1cc2c(s1)-n1c(C)nnc1C(CCCCC(=O)O)N=C2c1ccc(Cl)cc1 (configuration not stated),257 to 260 °C
18,CN(C)CCNC(=O)c1cc(S(C)(=O)=O)c(Cl)cc1NCc1ccco1,102 to 105 °C
19,CC(=O)NC[C@H]1CN(c2ccc(C(=O)c3cnc4ccc(Br)cn34)cc2)C(=O)O1,230 to 232 °C
20,Nc1cnnc(Cl)c1Cl,150 to 151 °C
21,C=Cc1ncn2c1[C@@H]1CCCN1C(=O)c1c(Cl)cccc1-2,213 to 215 °C

# Other lines, results leading:
row,melting point,SMILES
1,99 to 102 °C,COC(=O)C(Oc1ccc(Cl)cc1)c1ccc(Oc2ccccc2)cc1 (configuration not stated)
2,157 to 159 °C,COC(=O)C(Oc1cc(OCc2ccc3ncoc3c2)ccc1C#N)c1ccccc1C (racemic)
3,100 to 101 °C,COCOc1cc(Cl)ccc1-c1cc(-c2cccc(C(=O)NCCCn3ccnc3)c2)c(C#N)c(NC(=O)c2ccccc2OC)n1
4,126 to 129 °C,O=C(OC(=O)c1ccccc1S(=O)(=O)O)c1ccccc1S(=O)(=O)O
5,218 °C,O=C(Nc1ncc(C(F)(F)F)o1)C1c2ccccc2Oc2ccccc21
6,55 to 57 °C,Cn1nc(N)nc1NCCCOc1cccc(CN2C(=O)c3ccccc3C2=O)c1
7,216 to 217 °C,COCCN(c1cccc2cc(C(=O)O)[nH]c12)S(=O)(=O)c1cccs1
8,209 to 212 °C,CN1C(c2ccc3ccccc3c2)CC(=O)CC1c1ccc2ccccc2c1 (configuration not stated)
9,97 to 98 °C,COC(=O)CCC(OC(=O)Oc1ccccc1)C(=O)c1ccc(Cl)cc1 (configuration not stated)
10,165 to 167 °C,O=C(CCc1ccccc1)Nc1ccc(C(=O)O)c(O)c1
11,263 to 265 °C,O=C(O)c1cc2cc3c(cc2c2cc(OCc4ccccc4)ccc12)OCO3
12,109 to 111 °C,COC(=O)c1c(-c2ccc(C)cc2)ccc2ccccc12
13,100 to 120 °C,CC(NC(=O)Cc1cc(F)cc(F)c1)C(=O)NC1C(=O)NC(c2cccnc2)c2ccccc21 (configuration not stated)
14,119 to 121 °C,C=Cc1c(N)nc(-c2ccc(Cl)c(OC)c2F)nc1C(=O)OCc1ccccc1
15,179 to 181 °C,O=C1C(c2cc3c(cc2O)OCC3)c2cc(F)ccc2N1C(c1ccccc1)c1ccccc1 (configuration not stated)
16,71 to 74 °C,CCCc1cc(Nc2ccn(-c3ccccc3)n2)cc(CCC)c1OC(C)=O

row,melting point,SMILES
1,192 to 194 °C,CN(C)CCCC(C(=O)O)c1ccccc1-c1ccccc1 (configuration not stated)
2,75 to 78 °C,ON=C(CCC(CN1CCN(c2ccccn2)CC1)C(=NO)c1ccccc1)c1ccccc1 (configuration not stated)
3,152 to 160 °C,O=C1C(CCC(O)c2ccc(F)cc2)C(c2ccc(-c3ccc(C4OC(CO)C(O)C(O)C4O)cc3)cc2O)N1c1ccccc1 (configuration not stated)
4,198 to 200 °C,CCn1cc(C(=O)O)c(=O)c2cc(F)c(N3CCNC(COc4ccccc4)C3)cc21 (configuration not stated)
5,78 to 80 °C,CC(=S)NC(C(=O)NCc1ccccc1)c1ccco1 (configuration not stated)
6,211 to 214 °C,Cc1ccc(C=NNc2ncnc3ccccc23)cc1
7,224 to 226 °C,Cc1ccc(S(=O)(=O)NC2(c3ccccc3)C3=NCC(C)(C)CN3c3ccccc32)cc1 (configuration not stated)
8,149 to 150 °C,O=C1NCCc2c(OCCc3ccccc3)cccc21
9,132 to 133 °C,O=C(O)COc1nn(Cc2ccccc2)cc1-c1ccccc1
10,98 to 101 °C,O=C(NCc1ccccc1)c1cc2c(-c3ccccc3)n[nH]c2s1
11,195 to 196 °C,CCOC(=O)c1ccc(C(=O)c2c(N)sc3c2CCN(C(=O)OCc2ccccc2)C3)cc1
12,112 to 114 °C,COC12CCCCC1CC(c1ccccc1)=NN2S(=O)(=O)c1ccc(C)cc1 (configuration not stated)
13,184 to 185 °C,COc1ccc(CNc2nc(NCCCc3ccc(C(C)=O)cc3)nc3ncccc23)cc1OC
14,143 to 145 °C,CCCn1c(=O)cc(-n2nc(-c3c(-c4ccccc4)nn4ccccc34)ccc2=O)n(CC(=O)OC)c1=O
15,176 to 178 °C,O=C(C=Cc1ccc(S(=O)(=O)Nc2ccccc2)cc1)NO
16,145 to 146 °C,Cc1oc(-c2ccccc2)nc1COc1ccccc1COc1ccccc1CC(=O)O
